We go through 11 molecules from patent publication US20200369728A1, “PEPTIDOMIMETIC MACROCYCLES AND USES THEREOF” (Aileron Therapeutics, Inc., priority 2015, published 2020).

In data set [1] the test system is MCF-7. Nature of the data set: WST-1 / MTT cell proliferation assay, MCF-7 (single agents and combinations). Format: cell-based, human. To be noted: for effect on MCF-7 cell proliferation: single agent, 5 days; for IC50: Homo sapiens. Background: Tetrazolium dyes change colour on reduction, which living cells bring about.
Procedure: All media were supplemented with 10% (v/v) fetal calf serum, 100 units penicillin and 100 μg/ml streptomycin at 37° C. and 5% CO2. Prior to dosing, MCF-7 cells were switched to serum free medium and grown at 37° C. overnight.
One day prior to assaying, cells were trypsinized, counted and seeded at pre-determined densities in 96-well plates as follows: MCF-7, 5000 cells/well/200 μl; MOLT-3, 30,000 cells/well/200 μl. […] The WST-1 variant of the MTT assay was used to measure cell viability according to the manufacturer's protocol. WST-1 is a cell-impermeable, sulfonated tetrazolium salt that can be used to examine cell viability without killing the cells.
Combination index (CI) values were calculated using the CompuSyn software. The data were expressed as log(CI).
Cells were evaluated for viability by WST-1 assay or MTT assay 3-7 days after beginning the simultaneous treatments (FIGS. 25, 30 and 31).
Cells were evaluated for viability by WST-1 assay or MTT assay 3-7 days or 120 hrs after beginning treatment (FIGS. 24A and 35). […] Cells were evaluated for viability by WST-1 assay or MTT assay 3-7 days after beginning the simultaneous treatments (FIGS. 36 and 37).
A short description of data set [2]: MCF-7 breast cancer xenograft study, body weight and deaths. The class given is in vivo, mice. The source says:
A negative control stapled peptide.

For data set [3], the system named is SJSA-1. Kind of data set: Cell viability assay (MTT), SJSA-1.
Data set [4] concerns MCF-7 breast cancer xenograft. Kind of data set: MCF-7 breast cancer xenograft study, tumor growth inhibition. The settings on record: 30 mg/kg three times per week iv.
Procedure: This formulation was prepared once for the duration of the study.
Each group was assigned to a different treatment regimen.
During the dosing period the mice were weighed and tumors measured 1-2 times per week.
Data set [5] deals with AML cell lines. Nature of the data set: Cellular proliferation in AML cells treated with Ara-C. Format: cell-based. To be noted: Ara-C alone.
Data set [6] deals with MV4-11. Kind of data set: WST-1 / MTT cell viability, MV4-11. To be noted: MV4-11, sequential treatment, 72 hrs.
Procedure: Initially, various MV4-11 cell numbers were plated and evaluated 3-7 days later to determine the optimal number of cells to be plated and treatment duration.
Cells were evaluated for viability by WST-1 assay or MTT assay 3-7 days after beginning treatment.
A drug combination index plot was used to assess the synergistic, additive, or antagonistic properties of each combination treatment. […] Combination index (CI) values were calculated using the CompuSyn software. The data were expressed as log(CI).
A short description of data set [7]: FIGURE 19. The source says:
Table printed on a drawing sheet, FIGURE 19
First reader's note: The table is an inset in a plot of solubility against the number of amino acids C-terminal to the cross-link.

In data set [8] the target is T1, MDMX (In-house, 40 kD) (UniProt O15151 1-120, limits assumed).
T1 construct: also called MDM4
T1 sequence (looked up): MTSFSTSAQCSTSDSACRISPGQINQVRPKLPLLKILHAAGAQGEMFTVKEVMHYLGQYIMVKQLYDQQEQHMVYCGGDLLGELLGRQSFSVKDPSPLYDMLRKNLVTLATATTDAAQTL
Nature of the data set: competitive fluorescence polarization vs FAM-labeled linear peptide; column Ki (MDMX); grade means >1000 nM. (In general: Fluorescence polarisation rises when a labelled molecule tumbles more slowly, as on binding a larger partner.)

The target in data set [9] is T1, MDMX (In-house, 40 kD). Nature of the data set: competitive fluorescence polarization vs FAM-labeled linear peptide; column IC50 (MDMX); grade means >1000 nM.
Data set [10] addresses T2, MDM2 (In-house, 41 kD) (UniProt Q00987 1-125, limits assumed).
T2 construct: Construct limits and any tag are unknown; also called HDM2
Nature of the data set: competitive fluorescence polarization, displacement of FAM-labeled linear peptide from MDM2; grade decoded by the scale of Table 4.

For data set [11], the target named is T3, MDMX (In-house, 40 kD) (UniProt O15151 1-120, limits assumed).
T3 construct: Construct limits and any tag are unknown; also called MDM4
T3 sequence (looked up): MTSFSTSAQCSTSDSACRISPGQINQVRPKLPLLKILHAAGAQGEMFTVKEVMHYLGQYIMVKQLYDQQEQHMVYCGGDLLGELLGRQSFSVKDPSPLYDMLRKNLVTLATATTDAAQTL
Nature of the data set: competitive fluorescence polarization, displacement of FAM-labeled linear peptide from MDMX; grade decoded by the scale of Table 4.

In brackets after ≈: the same amount, converted by molar mass. Bridge positions count the residues as written; N and C are the ends. Square brackets hold non-standard residues; d marks the D form. R8 = C=CCCCCCC[C@@](C)(N)C(=O)O; Cba = N[C@@H](CC1CCC1)C(=O)O; S5 = C=CCCC[C@](C)(N)C(=O)O

T2 sequence (Q00987 1-125 limits assumed): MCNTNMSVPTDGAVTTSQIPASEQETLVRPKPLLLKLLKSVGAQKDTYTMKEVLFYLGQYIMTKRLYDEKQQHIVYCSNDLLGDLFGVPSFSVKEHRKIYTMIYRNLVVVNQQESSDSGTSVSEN

Regarding `CO[C@H]1C[C@@H]2CC[C@@H](C)[C@@](O)(O2)C(=O)C(=O)N2CCCC[C@H]2C(=O)O[C@H]([C@H](C)C[C@@H]2CC[C@@H](OCCO)[C@H](OC)C2)CC(=O)[C@H](C)/C=C(\C)[C@@H](O)[C@@H](OC)C(=O)[C@H](C)C[C@H](C)/C=C/C=C/C=C/1C` [everolimus, reference compound], the “effect on MCF-7 cell proliferation” value in data set [1] was “inhibited MCF-7 breast cancer cell proliferation with limited cell killing as a single agent”.

On to `CC(=O)N[C@@H](CC(C)C)C(=O)N[C@H](C(=O)N[C@@H](C)C(=O)N[C@]1(C)CCCCCCC=CCCC[C@@](C)(C(=O)N[C@@H](CO)C(=O)N[C@@H](C)C(=O)N[C@@H](C)C(N)=O)NC(=O)[C@H](CC2CCC2)NC(=O)[C@H](CCC(N)=O)NC(=O)[C@H](C)NC(=O)[C@H](Cc2c[nH]c3ccccc23)NC(=O)[C@H](Cc2ccc(O)cc2)NC(=O)[C@H](CCC(=O)O)NC1=O)[C@@H](C)O` [SP252], for which, in [2] (30 mg/kg 3x/wk iv, Days 18-39), the “% BW Change” value is given as “+3.3%”, the “No. with ≥10% BW Loss” value is 0/10 and the “No. with ≥20% BW Loss or death” value is 0/10. In data set [2] (30 mg/kg three times per week iv), the “tolerability of dosing regimen” value was “well-tolerated with no body weight loss or deaths noted”. In data set [3], the “activity in the SJSA-1 in vitro viability assay” value is recorded as “no activity”. The “TGI by Day 32” value in [4] came out at 88%.

As for `Nc1ccn([C@@H]2O[C@H](CO)[C@@H](O)[C@@H]2O)c(=O)n1` [Ara-C, cytarabine, reference compound], the “proliferation of AML cell lines” value in data set [5] was “inhibits proliferation of AML cell lines”. In [6], the “order of addition: effect on cell growth, AP1 and Ara-C” value is given as “suppressed MV4-11 cell growth with or without AP1”.

As for `CC(=O)N[C@@H](CC(C)C)C(=O)N[C@H](C(=O)N[C@@H](Cc1ccccc1)C(=O)N[C@]1(C)CCCCCCC=CCCC[C@@](C)(C(=O)N[C@@H](C)C(=O)N[C@@H](C)C(=O)N[C@@H](C)C(=O)N[C@@H](C)C(=O)N[C@@H](C)C(=O)N[C@@H](C)C(=O)N[C@H](C)C(N)=O)NC(=O)[C@H](CC(C)C)NC(=O)[C@H](CCC(N)=O)NC(=O)[C@H](C)NC(=O)[C@H](Cc2c[nH]c3ccccc23)NC(=O)[C@H](Cc2ccc(O)cc2)NC(=O)[C@H](C)NC1=O)[C@@H](C)O` [SP316], the Solubility – broadly, the concentration that dissolves in the medium under given conditions – in data set [7] turned out to be 5000 µg/mL (≈ 2570 µM).

Take `C[C@]12CC[C@@H]3c4ccc(O)cc4C[C@@H](CCCCCCCCC[S+]([O-])CCCC(F)(F)C(F)(F)F)[C@H]3[C@@H]1CC[C@@H]2O` (stereo partly shown) [fulvestrant, reference compound]: the IC50 – broadly, the concentration needed to halve the response being measured – was found to be 0.261 nM in data set [1] (MCF7, FUL + 0.4 μM Aileron peptide 1, MCF-7) and 0.768 nM in [1] (MCF7, FUL alone, MCF-7). Also, the “effect on MCF-7 cell proliferation” value in data set [1] is “inhibited MCF-7 breast cancer cell proliferation with limited cell killing as a single agent”.

B1: SP252 (peptide)
peptide: LTAAEYWAQAASAA
modifications: not fully specified; N-terminal acetyl (Ac); $r8 = alpha-Me R8-octenyl-alanine and $ = alpha-Me S5-pentenyl-alanine joined by an all-carbon crosslinker; Cba = cyclobutyl alanine; C-terminal amide (NH2)
notes: also called Ac-LTA$r8EYWAQCba$SAA-NH2
As for B1, in [8], the Ki – broadly, the equilibrium dissociation constant of an inhibitor or competing ligand from its target – is more than 1000 nM. This molecule registered an IC50 in data set [9] of more than 1000 nM.

B2: SP603, Ac-LTF$r8F4gYWAQL$AAAAAa-NH2 (peptide)
peptide: LTFAFYWAQLAAAAAAA
modifications: not fully specified; N-terminal acetyl; $r8 at 4 crosslinked by all-carbon olefin staple to $ at 11; F4g at 5 (abbreviation not defined in the filing); D-Ala (a) at C-terminus; C-terminal amide
notes: stapled peptidomimetic macrocycle
As to B2, the Ki in [10] and in data set [11] was not above 10 nM throughout.

B3: SP250 (peptide)
peptide: ETFAEYWAQAASAA
modifications: not fully specified; N-terminal Pam cap (abbreviation not explained in the filing); $r8 = alpha-Me R8-octenyl-alanine and $ = alpha-Me S5-pentenyl-alanine joined by an all-carbon crosslinker; Cba = cyclobutyl alanine; C-terminal amide (NH2)
notes: also called Pam-ETF$r8EYWAQCba$SAA-NH2
B3 yielded a Ki in data set [8] of more than 1000 nM. Also, the IC50 in data set [9] was more than 1000 nM.

B4: SP716, Ac-LTF$r8EYWAQCba$AAA-NH2 (iso2) (peptide)
peptide: Ac-LTF[R8]EYWAQ[Cba][S5]AAA-NH2
modifications: staple 4-11; also: single isomer iso2
notes: stapled peptidomimetic macrocycle, isomer iso2
Turning to B4, the Ki in [10] and in data set [11] was not above 10 nM in each case.

B5: SP712, Ac-LTF$r8HYWAQCba$SAA-NH2 (iso2) (peptide)
peptide: LTFAHYWAQAASAA
modifications: not fully specified; N-terminal acetyl; $r8 at 4 crosslinked by all-carbon olefin staple to $ at 11; Cba (cyclobutyl alanine) at 10; C-terminal amide; single isomer iso2
notes: as for B4
Regarding B5, the Ki in data set [10] and in [11] was not above 10 nM each time.

B6: SP713, Ac-LTF$r8SYWAQCba$SAA-NH2 (iso2) (peptide)
peptide: LTFASYWAQAASAA
modifications: not fully specified; N-terminal acetyl; $r8 at 4 crosslinked by all-carbon olefin staple to $ at 11; Cba (cyclobutyl alanine) at 10; C-terminal amide; single isomer iso2
notes: as for B4
For B6, the Ki in [10] and in data set [11] was not above 10 nM in each case.
